Reference: patent US20160354427A1, “METHODS FOR INDUCING EPITHELIAL CANCER CELL SENESCENCE” (Institute for Cancer Research d/b/a The Research Institute …, priority 2011, published 2016)

How the values were obtained:
[1] = tested on: Wnt5a mRNA in PEO1 cells; assay: Wnt5a mRNA expression by qRT-PCR after Aza-C treatment; format: cell-based, human; conditions: 5 μmol/L Aza-C for 4 days, vs control
Description: (§1) FIGS. 2A-2C show promoter DNA CpG island hypermethylation contributes to Wnt5a downregulation in human EOC cells. […] Locations of exon 1 (open rectangle), CpG sites (vertical lines) and coding exons (filled rectangle), and the transcription start site (curved arrow) are indicated. Flat arrows indicate the positions of primers used for PCR amplification, and the size of PCR product is also indicated. […] Mean of 3 independent experiments with SD.
(§2) RT-PCR, qRT-PCR and immunoblotting. RNA from cultured primary HOSE or human EOC cells was isolated using Trizol (Invitrogen) according to manufacture's instruction. For qRT-PCR, Trizol®—(Molecular Research Center, Inc., Cincinnati, Ohio) isolated RNA was further purified using a RNeasy® mini kit (Qiagen GmbH, Germany). The Wnt5a primers used for qRT-PCR were purchased from Applied Biosystems. Housekeeping β-2-microglobulin or β-actin mRNA expression was used to normalize the Wnt5a mRNA expression. Soluble β-catenin was extracted using a buffer that consisting of 10 mM pH 7.5 Tris-HCl, 0.05% NP-40, 10 mM NaCl, 3 mM MgCl2, 1 mM EDTA and proteinase inhibitors (Roche). The following antibodies were used for immunoblotting: goat anti-Wnt5a (R&D systems), mouse anti-GAPDH (Millipore/Chemicon), mouse anti-β-catenin (BD Bioscience), anti-p53, mouse anti-Rb and mouse anti-β-actin (Sigma Chemical Co.), and rabbit anti-pRBpS780 (Cell Signaling).

[2] = tested on: Wnt5a protein in PEO1 cells; assay: Wnt5a protein expression by immunoblotting after Aza-C treatment; format: cell-based, human; conditions: 5 μmol/L Aza-C for 4 days, vs control
Description: as §1, §2

For `Nc1ncn([C@@H]2O[C@H](CO)[C@@H](O)[C@H]2O)c(=O)n1` [Aza-C, 5-Aza-cytadine], the “levels of Wnt5a mRNA” value [1] was “significant increase” and the “levels of Wnt5a protein” value [2] was “significant increase”.
